Measured values as given in patent US20210220450A1, “TREATMENT OF AN IOP CONDITION” (The Research Foundation for The State University of New York, priority 2013, published 2021).

Legend:
[1] = test system: sheep of the Coriedale breed; experiment: Steroid-induced IOP elevation in sheep, tPA injected into the anterior chamber (Example 9); assay type: in vivo
Procedure: Methods. Lyophilized tPA, obtained as Acetilyse® from Boehringer Ingelheim S. A. (Buenos Aires) containing arginine, was used. Five sheep of the Coriedale breed were selected. Initially all eyes received instillation of 1% prednisolone 3 times/day for 10 days to elevate their IOP from 10 mm Hg to about 23 mm Hg. Then, 0.0001 μg was injected into one of the eyes and its effect was followed for up to 55:00 hrs while the instillation of prednisolone continued in both eyes. The same protocol was implemented for the 0.001 and 0.01 μg amounts (after extended washout) in the contra lateral eyes. Arginine, which is associated with 0.01 ug tPA, was injected alone and had no effect.

C57BL/6J mice [2] = experiment: Outflow facility in TA and protein treated C57BL/6J mouse eyes (Example 13); assay type: in vivo; settings: TA five days before intravitreal protein (2 μl, 5 μg/μl); two days after injection
Procedure: C57BL/6J mice were divided into two groups:
(§1) 1) Animals receiving bilateral steroid (TA) injection subconjunctivally five days prior to protein injection (FIG. 10b) and 2) Animals not receiving subconjunctival steroids (FIG. 10c).
(§2) 1) Animals that received unilateral intravitreal injection with 2 μl of tPA (5 μg/μl, Actilyse; Boehringer Ingelheim, Ingelheim am Rhein, Germany) while the contralateral eye received 2 μl of BSA (5 μg/μl; Gold Biotechnology, St Louis, Mo., USA), and 2) Animals that received unilateral intravitreal injections with 2 μl of non-enzymatically active tPA (NE-tPA/S478A-tPA) (5 μg/μl; Innovative Research, Novi, Mich., USA) while the contralateral eye received 2 μl of BSA. Animals were euthanized two days after intravitreal injection.
(§3) Outflow facility determination: Mouse eyes were enucleated immediately after euthanasia. Outflow facility was determined using a constant pressure method, as previously described. Pressure was raised in steps of 4 cmH2O, from 8 cmH2O (5.88 mmHg) to 32 cmH2O (23.54 mmHg) by increasing the height of a column of fluid of BSS. […] Flow was constantly measured via a microfluidic flow sensor (0.07-1.5 uL/min, MFS1; Elveflow, Paris, France). […] Any eyes that developed visible leaks during outflow facility determination, or that had pressure-flow correlations with R^2<0.9, were excluded from analysis but were used for RNA quantification.

Mmp-2, Mmp-9, Mmp-13 [3] = experiment: Mmp expression in TA and protein treated C57BL/6J eyes (Example 13); assay type: in vivo, mouse; settings: vs BSA treated controls
PlatKO mice = experiment: Outflow facility in protein treated PlatKO mouse eyes (Example 14); assay type: in vivo; settings: intravitreal protein
Procedure: PlatKO and Mmp-9KO mice were also not given steroids prior to protein injections (FIG. 10c). Within each cohort, animals were divided into two groups:
as §2
as §3, with “BSS. Steady state was initially achieved after 10 minutes.” for “BSS.”

C57BL/6J mice [4] = experiment: Outflow facility in protein treated C57BL/6J eyes not exposed to steroids (Example 15); assay type: in vivo, mouse; settings: C57BL/6J not exposed to steroids, intravitreal protein
Procedure: as §1, §2
as §3, with “BSS. Steady state was initially achieved after 10 minutes.” for “BSS.”

MMP-2, MMP-9, MMP-13 [5] = experiment: MMP expression in PA treated HTM cells (Examples 17, 18); assay type: cell-based; settings: PA treated HTM cells
Mmp-2, Mmp-9, Mmp-13 [6] = experiment: Mmp expression in Tg-MYOCY437H angle ring tissue (Example 19); assay type: in vivo, mouse; settings: vs BSA treated eyes
Procedure: Eyes were flash frozen in liquid nitrogen after outflow facility determination and subsequently dissected on ice to obtain the angle ring tissues containing the TM, as previously described (Kumar, Shah et al. 2013). Dissected TM tissues were immersed in RNAlater solution (Invitrogen, Waltham, Mass., USA) and then snap-frozen and stored at −80° C. until RNA extraction. Tissue collected was pooled (four eyes) and homogenized in TRIzol reagent for RNA isolation, per manufacturer's instructions (Life Technologies, Carlsbad, Calif., USA). RNA concentration was determined with a Nanodrop ND-1000 Spectrophotometer (Thermo Scientific, Wilmington, Del., USA). cDNA was synthesized by using High-Capacity cDNA Reverse Transcription Kit (Applied Biosystems, Waltham, Mass., USA) according to manufacturer's protocol. Quantitative real-time PCR (qRT-PCR) was performed by using Green-2-Go qPCR Mastermix-ROX (Bio Basic, Amherst, N.Y., USA) on a QuantStudio 6 Flex thermal cycler (Applied Biosystems, Carlsbad, Calif., USA). mRNA expression of Plat, Plau, Pai-1, Mmp-2, Mmp-9, and Mmp-13 in angle ring tissues was determined. Primers were designed by using Primer-BLAST (https://www.ncbi.nlm.nih.gov/tools/primer-blast/index.cgi?LINK_LOC=BlastHome; in the public domain); primer sequences are listed in Table 2. Primer specificity was confirmed by agarose gel electrophoresis and multiple-sized amplification products were absent on inspection of melting curves. Target mRNA expression values were normalized to the expression levels of Rps11 (ribosomal protein S11). The relative fold change was calculated by using the ΔΔCt method (Hu, Wang et al. 2015). Outliers identified via the Thompson Tau test were removed from analysis.

[7] = intravitreal use; toxicity attributed to arginine in commercial preparations; cited from earlier work

For tissue plasminogen activator [tPA], which “effect on IOP” value ([1]; 0.0001 μg into the AC, IOP 23.0 mm Hg at 6:00 and 30:00 hrs) is on record?
Its value is “had no effect”.

And the IOP ([1]; 0.001 μg into the AC, 6:00 hr, from 23.1)?
Its IOP is 18.6 mmHg.

What about the IOP ([1]; 0.001 μg into the AC, 30:00 hr) of the same substance?
Its IOP is 22.3 mm Hg.

What about the IOP ([1]; 0.01 μg into the AC, 6:00 hrs, baseline 23.4) of the same substance?
The IOP was 14.2 mm Hg.

And the IOP ([1]; 0.01 μg into the AC, 30:00 hrs)?
Its IOP is 19.0 mm Hg.

And the IOP ([1]; 0.01 μg into the AC, 48:00 hrs)?
The IOP was 20.9 mm Hg.

And the IOP ([1]; 0.01 μg into the AC, 55:00 hrs)?
The IOP was 22.3 mm Hg.

What about the “effect on IOP” value ([1]; single dose of 1 μg of tPA injected intracamerally) of the same substance?
Its value is “reduction in IOP”.

And the “outflow facility, mean±standard deviation” value (C57BL/6J mice [2])?
The value was 105.3±35.8×10^−5 μl/min/mmHg.

What about the “Mmp-2, Mmp-9 and Mmp-13 expression” value (Mmp-2, Mmp-9, Mmp-13 [3]) of the same substance?
Its value is “significant upregulation”.

What about the “increase in outflow facility compared to BSA treated eyes” value (PlatKO mice) of the same substance?
Its value is 46%.

And the “outflow facility, mean±standard deviation” value (PlatKO mice; no steroid, two days)?
The value was 89±27×10^−5 μl/min/mmHg.

What about the “outflow facility, mean±standard deviation” value (C57BL/6J mice [4]) of the same substance?
Its value is 102.7±19.5×10^−5 μl/min/mmHg.

What about the MMP-2 expression (MMP-2, MMP-9, MMP-13 [5]; between treatments) of the same substance?
Its MMP-2 expression is “not significantly different”.

What about the “expression (FIG. 17C, MMP-9)” value (MMP-2, MMP-9, MMP-13 [5]; vs PA+BSA) of the same substance?
The value was “significant upregulation”.

And the Mmp-2 expression (Mmp-2, Mmp-9, Mmp-13 [6]; 2 days)?
The Mmp-2 expression was “no significant difference”.

And the Mmp-9 expression (Mmp-2, Mmp-9, Mmp-13 [6]; 2 days)?
Its Mmp-9 expression is “not detected”.

And the Mmp-13 expression (Mmp-2, Mmp-9, Mmp-13 [6]; 2 days)?
Its Mmp-13 expression is “significantly higher”.

What about the Mmp-2 expression (Mmp-2, Mmp-9, Mmp-13 [6]; 5 days) of the same substance?
Its Mmp-2 expression is “no significant difference”.

And the Mmp-9 expression (Mmp-2, Mmp-9, Mmp-13 [6]; 5 days)?
The Mmp-9 expression was “higher”.

What about the Mmp-13 expression (Mmp-2, Mmp-9, Mmp-13 [6]; 5 days) of the same substance?
Its Mmp-13 expression is “significantly higher”.

What about the “doses with reported retinal toxicity” value [7] of the same substance?
Its value is 50 to 100 µg.
